Measurements as given in article PMC11878344 (Angewandte Chemie (International Ed. in English), 2025).

Legend:
[1] = test system: serine hydrolases of the mouse brain proteome (MAGL, DAGL, FAAH, ABHD6, ABHD12); experiment: Competitive multiplex ABPP in mouse brain proteome; format: biochemical; conditions: 1 μM probe
Description: (§1) Activity‐based protein profiling (ABPP)[49] was used to determine the selectivity of the reversible probes (9, 10) versus a broad range of other serine hydrolases, including the relevant ECS off‐targets DAGL, FAAH, ABHD6, and ABHD12.[45, 49, 50, 51] The ABPP assay was studied in the mouse brain proteome (MBP) at 1 μM concentration as mouse brain homogenate is the most relevant model system for studying ECS enzymes.[45, 49, 50, 51] […] The irreversible probes 11 and 12 could be used to visualize MAGL by in‐gel SDS‐PAGE fluorescence of MBP samples and, thereby, directly showing the specificity of 11 and 12 towards the two MAGL splicing variants present in MBP over a broad range of concentrations. Starting at 1 nM probe concentration, MAGL was detected and only at elevated concentrations greater than 1 μM, minor off‐target protein labeling at approx. 80 kDa started to appear (Figure 3 B). In addition to testing in mouse brain lysates, we also determined the binding of MAGL probes 9–12 towards a panel of 50 off‐targets via a competitive radioligand binding screen to detect interference with potential safety‐related off‐targets (Figure 3 C).
(§2) Mouse brain sample preparation. […] Protein concentration was determined with Bradford Assay, and samples were diluted to a final concentration of 2.0 mg/mL. […]

[2] = target: T1, MAGL splicing variants in mouse brain proteome (Mus musculus, UniProt O35678); experiment: In-gel SDS-PAGE fluorescence labeling of mouse brain proteome with irreversible probes; format: biochemical
T1 sequence (O35678 1-303): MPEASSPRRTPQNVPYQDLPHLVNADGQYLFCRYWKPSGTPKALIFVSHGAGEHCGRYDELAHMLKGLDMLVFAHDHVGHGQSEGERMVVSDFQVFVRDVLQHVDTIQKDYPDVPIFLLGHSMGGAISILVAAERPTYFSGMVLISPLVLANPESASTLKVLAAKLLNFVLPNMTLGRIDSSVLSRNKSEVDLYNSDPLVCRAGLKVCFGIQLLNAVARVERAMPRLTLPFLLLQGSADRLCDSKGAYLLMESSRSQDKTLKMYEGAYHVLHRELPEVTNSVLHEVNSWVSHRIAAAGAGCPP
Description: as §1, §2

In the case of `CN(C)c1ccc2c(c1)[Si](C)(C)c1cc(N(C)C)ccc1C21OC(=O)c2ccc(C(=O)NCCCCCOc3ccccc3CC3CC4(C3)CN(C(=O)N3CC5(COC(=O)N5)C3)C4)cc21` (stereo not drawn) [Compound 10], the “Blocking of serine hydrolase fluorescence signal (selectivity)” value [1] was “Complete blocking of the fluorescence signal was exclusively observed for MAGL”.

With `CN(C)c1ccc2c(c1)[Si](C)(C)c1cc(N(C)C)ccc1C21OC(=O)c2ccc(C(=O)NCCCCCOc3ccccc3CC3CC4(C3)CN(C(=O)OC(C(F)(F)F)C(F)(F)F)C4)cc21` (stereo not drawn) [Compound 12] the “Probe concentration at which minor off-target protein labeling (approx. 80 kDa) appears” value [2] was “greater than 1 μM” and the “Probe concentration from which MAGL was detected” value [2] was no less than 1 nM.
